We go through eleven compounds from US20120237651A1 (priority 2002, published 2012).

In assay [1] the test system is DON contamination. The assay can be described thus: Field test, mixed use (1): DON contamination concentration by HPLC-UV (Example 3). It is filed as in vivo, Wheat (cultivar: Haruyutaka). As to the method: Wheat (cultivar: Haruyutaka) was seeded on Apr. […] A suspension containing potassium phosphite and various fungicidal agents was prepared in a liquid mixture made up of a spreading agent (Gramine S: supplied from Hokkai Sankyo Co., Ltd.) and water. Using potassium phosphite as the compound A, 0.070% P2O5, and the 0.006 to 0.025% fungicidal agent for agri-horticulture for the wheat as the compound B, water solution containing them was prepared, and 100 L thereof per 10 a was sprayed on leaves in the following growth stages. That is, the first spray (June 24, heading date), the second (June 30, flowering stage), the third (July 9) were performed. The harvest was performed on August 12 (50 days after the heading date) by harvesting the wheat in 3.4 m^2 in each section. […] The DON contamination concentration was analyzed using HPLC-UV method in officially fixed methods shown by the Minister of Health, Labor and Welfare. Quantitative analysis was performed by repeating three times, and the quantitative value was an average value thereof.
Preparation of analysis sample solutions and the analysis procedure are briefly described.
To 50 g of the whole grain powder, 85% acetonitrile was added, vigorously agitated for 30 min, and subsequently sonicated for 10 min.
After eliminating impurities with filter paper, a filtrate was purified using a pretreatment column MultiSep #227 to make a solution for analysis.
The test solution for analysis was injected into high performance liquid chromatography, and DON was detected by ultraviolet rays.

Assay [2] deals with Fusarium head blight. It is filed as in vivo, Wheat (cultivar: Haruyutaka).
The test system of assay [3] is DON contamination. The assay can be described thus: Field test, mixed use (2): DON contamination concentration by ELISA (Example 4). It is filed as in vivo, Wheat (cultivar: Haruyutaka).
For assay [4], the system named is Fusarium head blight. It is filed as in vivo, Wheat (cultivar: Haruyutaka). The source holds these as a separate data set.
For assay [5], the system named is Fusarium head blight. It is filed as in vivo, Wheat (cultivar: Haruyutaka). The source holds these as a separate data set.
For assay [6], the system named is DON contamination. Further details: species or system Wheat (cultivar: Haruyutaka). To be noted: in vivo.
For assay [7], the system named is DON contamination. The assay can be described thus: Field test, single use: DON contamination concentration of wheat whole grain powder by ELISA (Example 1). To be noted: for DON concentration: 3 foliar sprays.
Procedure: Wheat (cultivar: Haruyutaka) was seeded on Apr. 19, 2002, and cultivated according to a conventional cultivating standard (Hokkaido, Agriculture Department, 1995) to establish test sections with 6.75 m^2 per section (3 repeats). […] That is, the first spray (June 28, flowering date), the second spray (Jul. 8, 10 days after the flowering date, and the third spray (Jul. 18, 20 days after the flowering date) were performed. A conventional control for the purpose of controlling plant pathogens and plant insects was performed together. That is, the first [June 20, azoxystrobin (2000 times dilution)+fenitrothion (1000 times dilution)], the second [tebuconazole (June 28, 2000 times dilution)+sumithione (1000 times dilution)], and the third [July 8, propiconazole (2000 times dilution)+fenitrothion (1000 times dilution)], the forth [July 17, tebuconazole (2000 times dilution)+fenitrothion (1000 times dilution)] were performed. As controls, the test section where only the conventional control was given and the test section without any control were established. Harvest was performed by harvesting the wheat in 4 m^2 in the test sections on August 9 (52 days after the heading date). After the harvest, the wheat was applied on a rice grader with 2.2 mm opening of screen to make selected grains, which were then pulverized by a rapid pulverizer to make whole grain powder. The whole grain powder was used as a sample for analysis. The DON contamination concentration was analyzed by ELISA method using commercially available Rida Screen Fast Don supplied from r-Biopharm.
Preparation of analysis sample solutions and analysis procedure are briefly described.
To 5 g of the whole grain powder, 100 ml of water was added, and vigorously agitated for 10 min to make a DON extract solution.
The DON extract solution was centrifuged at high speed, and the supernatant was used for the ELISA analysis.
According to the method described on ELISA kit, various reagents were added, and subsequently an absorbance of each test solution was measured.
The DON concentration of each test solution was read out from a standard curve made using DON standard solutions.
Assay [8] deals with Fusarium graminearum having DON production capacity. It is filed as cell-based.
Assay [9] concerns Fusarium graminearum. It counts as cell-based. The following applies: potassium phosphite 5.6%; for Ergosterol peak area value: 27° C.
In assay [10] the test system is Fusarium graminearum having DON production capacity. It counts as cell-based. The source holds these as a separate data set.
For assay [11], the system named is Fusarium graminearum. It counts as cell-based. The following applies: for Ergosterol peak area: day 28 of culture.
[12] abbreviates: Metconazole 0.006% mixed with potassium phosphite 0.07% P2O5.
The mark [13] stands for this setting: Metconazole 0.006%, without potassium phosphite.
Setting [14] is: Tebuconazole 0.020% mixed with potassium phosphite 0.07% P2O5.
Where [15] appears, read: Tebuconazole 0.020%, without potassium phosphite.
[16] abbreviates: Tebuconazole 0.020% mixed with potassium phosphite 0.070% in P2O5.
Setting [17] is: active ingredient A 0.120% (as P2O5), conventional control.
The mark [18] stands for this setting: Iminoctadine acetate 0.025% mixed with potassium phosphite 0.07% P2O5.
The mark [19] stands for this setting: Iminoctadine acetate 0.025%, without potassium phosphite.
Setting [20] is: Kresoxim-methyl 0.021% mixed with potassium phosphite 0.07% P2O5.
The mark [21] stands for this setting: Kresoxim-methyl 0.021%, without potassium phosphite.
Where [22] appears, read: Propiconazole 0.017% mixed with potassium phosphite 0.07% P2O5.
The mark [23] stands for this setting: Propiconazole 0.017%, without potassium phosphite.
The mark [24] stands for this setting: Propiconazole 0.017% mixed with potassium phosphite 0.070% in P2O5.
Where [25] appears, read: Trifloxystrobin 0.025% mixed with potassium phosphite 0.070% in P2O5.
Where [26] appears, read: Trifloxystrobin 0.025%, without potassium phosphite.
Setting [27] is: sulfur 0.125% mixed with potassium phosphite 0.070% in P2O5.
[28] abbreviates: sulfur 0.125%, without potassium phosphite.
[29] abbreviates: active ingredient A 0.112% (as P2O5), conventional control.
[30] abbreviates: active ingredient A 0.038% (as P2O5), conventional control.
Setting [31] is: active ingredient A 0.070% (as P2O5), conventional control.
Where [32] appears, read: active ingredient A 0.112% (as P2O5), no control.
[33] abbreviates: potassium phosphite 0.07% P2O5 alone, no active ingredient B.
The mark [34] stands for this setting: potassium phosphite 0.070% in P2O5 alone, no active ingredient B.

“And” between values parts separate entries of the source, which are not always exact repeats. Identical values can stand only once. Counter-ions that a name gives are not always drawn. Like-named read-outs stand apart in the source and are kept apart here.

For the compound `CC1(C)CCC(Cc2ccc(Cl)cc2)C1(O)Cn1cncn1` (racemic) [Metconazole, (1RS,5RS)-5-(4-chlorobenzyl)-2,2-dimethyl-1-(1-H-1,2,4-triazol-1-ylmethyl)cyclopentanol], the DON concentration worked out at 0.10 ppm in the assay on DON contamination [1] (setting [12]) and 0.34 ppm in the assay with DON contamination [1] (setting [13]). Besides, the “Incidence rate for panicles” value in the assay with Fusarium head blight [2] (setting [12]) turned out to be 1.0%; in the assay on Fusarium head blight [2] (setting [13]), 0.7%. Also, the “Number of diseased spikelets/panicle” value in the assay with Fusarium head blight [2] (setting [12]) stood at 0.010; with Fusarium head blight [2] (setting [13]) it was 0.007.

As for `CC(C)(C)C(O)(CCc1ccc(Cl)cc1)Cn1cncn1` (racemic) [Tebuconazole, (RS)-1-p-chlorophenyl-4,4-dimethyl-3-(1H-1,2,4-triazol-1-ylmethyl)pentan-3-ol], the DON concentration in the assay with DON contamination [1] (setting [14]) is 0.38 ppm; in the assay with DON contamination [1] (setting [15]) it was 0.39 ppm; with DON contamination [3] (setting [16]), 0.08 ppm; with DON contamination [3] (setting [15]) it was 0.16 ppm. Further, the results for the “Incidence rate for panicles” value in the assay with Fusarium head blight [2] (setting [14]) and in the assay on Fusarium head blight [4] (setting [16]) were 1.0% and 5.0%, respectively. In addition, the “Number of diseased spikelets/panicle” value is on record as 0.010 with Fusarium head blight [2] (setting [14]) and 5.0 in the assay on Fusarium head blight [4] (setting [16]).

For `CCO[PH](=O)O` [Fosetyl, aluminium salt (common name: fosetyl) of tris(ethylphosphonate)], the “Incidence rate of Fusarium head blight for panicles” value with Fusarium head blight [5] (setting [17]) is reported as 0.0%. Moreover, in the assay on DON contamination [6], the “DON concentration diseased grain” value is 11.0 ppm and the “DON concentration healthy grain” value came to 0.96 ppm. Further, the DON concentration with DON contamination [7] (setting [17]) was 0.84 ppm.

In the case of `CC(=O)O.CC(=O)O.CC(=O)O.NC(N)=NCCCCCCCCNCCCCCCCCN=C(N)N` [Iminoctadine acetate, 1,1′-iminodi(octamethylene)diguanidium=triacetate], the figures for the DON concentration in the assay with DON contamination [1] (setting [18]) and with DON contamination [1] (setting [19]) were 0.20 ppm and 1.04 ppm, respectively. Moreover, the “Incidence rate for panicles” value worked out at 3.0% in the assay on Fusarium head blight [2] (setting [18]) and 1.7% in the assay on Fusarium head blight [2] (setting [19]). The “Number of diseased spikelets/panicle” value amounted to 0.030 in the assay on Fusarium head blight [2] (setting [18]) and 0.017 in the assay with Fusarium head blight [2] (setting [19]).

Take `CO/N=C(/C(=O)OC)c1ccccc1COc1ccccc1C` [Kresoxim-methyl, methyl=(E)-2-methoxyimino[α-(o-tolyloxy)-o-tolyl]acetate]: the DON concentration in the assay with DON contamination [1] (setting [20]) came to 0.51 ppm; in the assay with DON contamination [1] (setting [21]), 1.05 ppm. For the same compound, the “Incidence rate for panicles” value is recorded as 0.7% in the assay on Fusarium head blight [2] (setting [20]) and 0.3% with Fusarium head blight [2] (setting [21]). Moreover, the “Number of diseased spikelets/panicle” value with Fusarium head blight [2] (setting [20]) is listed as 0.007; in the assay on Fusarium head blight [2] (setting [21]), 0.003.

As to `CCCC1COC(Cn2cncn2)(c2ccc(Cl)cc2Cl)O1` (stereo not drawn) [Propiconazole, 1-[2-(2,4-dichlorophenyl)-4-propyl-1,3-dioxolan-2-ylmethyl)-1H-1,2,4-triazole], the DON concentration in the assay on DON contamination [1] (setting [22]) is listed as 0.72 ppm; in the assay on DON contamination [1] (setting [23]), 1.01 ppm; with DON contamination [3] (setting [24]) it was 0.11 ppm; in the assay on DON contamination [3] (setting [23]) it was 0.57 ppm. The “Incidence rate for panicles” value amounted to 2.7% in the assay with Fusarium head blight [2] (setting [22]) and 4.7% in the assay with Fusarium head blight [4] (setting [24]). In addition, the figures for the “Number of diseased spikelets/panicle” value in the assay on Fusarium head blight [2] (setting [22]) and with Fusarium head blight [4] (setting [24]) were 0.027 and 5.0, respectively.

For the compound `CON=C(C(=O)OC)c1ccccc1CON=C(C)c1cccc(C(F)(F)F)c1` [Trifloxystrobin], the DON concentration in the assay with DON contamination [3] (setting [25]) was determined as 0.12 ppm; with DON contamination [3] (setting [26]), 0.35 ppm. In addition, the “Incidence rate for panicles” value came out at 3.0% in the assay with Fusarium head blight [4] (setting [25]) and 4.3% in the assay with Fusarium head blight [4] (setting [26]). Also, the “Number of diseased spikelets/panicle” value with Fusarium head blight [4] (setting [25]) turned out to be 3.0; in the assay on Fusarium head blight [4] (setting [26]), 5.0.

Consider `S1SSSSSSS1` [sulfur], for which the DON concentration in the assay with DON contamination [3] (setting [27]) was 0.43 ppm; in the assay on DON contamination [3] (setting [28]), 1.85 ppm. The “Incidence rate for panicles” value with Fusarium head blight [4] (setting [27]) and with Fusarium head blight [4] (setting [28]) was 8.7% each time. Further, the results for the “Number of diseased spikelets/panicle” value with Fusarium head blight [4] (setting [27]) and in the assay on Fusarium head blight [4] (setting [28]) were 8.7 and 10.3, respectively.

Iminoctadine albesilate: the DON concentration was 0.00 ppm with DON contamination [3] (Iminoctadine albesilate 0.030% mixed with potassium phosphite 0.070% in P2O5) and 0.22 ppm with DON contamination [3] (Iminoctadine albesilate 0.030%, without potassium phosphite). Further, the “Incidence rate for panicles” value in the assay on Fusarium head blight [4] (in vivo) was 7.3% and 2.7%.

In the case of potassium phosphate, in the assay with Fusarium head blight [5] (setting [29]), the “Incidence rate of Fusarium head blight for panicles” value was 0.0%. Besides, in the assay on DON contamination [6], the “DON concentration diseased grain” value was found to be 86.9 ppm and the “DON concentration healthy grain” value came out at 0.06 ppm. For the same compound, in the assay with DON contamination [7] (Example 1, summary in text), the DON inhibitory effect result is reported as “low”. Also, the DON concentration with DON contamination [7] (setting [29]) is on record as 4.66 ppm.

With potassium phosphite, the “Incidence rate of Fusarium head blight for panicles” value in the assay on Fusarium head blight [5] (setting [30]) is reported as 0.3%; in the assay with Fusarium head blight [5] (setting [31]), 0.0%; in the assay on Fusarium head blight [5] (setting [29]), 0.9%; in the assay on Fusarium head blight [5] (setting [32]) it was 1.2%. Moreover, in the assay with DON contamination [6], the “DON concentration healthy grain” value was 0.05 ppm and 0.04 ppm. Further, the “DON contamination concentration in diseased grains” value in the assay on DON contamination [6] was “decreased depending on the given concentration of potassium phosphite”. Further, the DON concentration is recorded as 0.77 ppm in the assay on DON contamination [1] (setting [33]); 0.57 ppm in the assay with DON contamination [3] (setting [34]); 2.41 ppm in the assay with DON contamination [7] (setting [30]); 0.59 ppm in the assay on DON contamination [7] (setting [31]); 0.39 ppm with DON contamination [7] (setting [29]); 0.69 ppm in the assay with DON contamination [7] (setting [32]). Further, the results for the “Incidence rate for panicles” value in the assay with Fusarium head blight [2] (setting [33]) and in the assay on Fusarium head blight [4] (setting [34]) were 4.3% and 10.3%, respectively. Moreover, the “Number of diseased spikelets/panicle” value was determined as 0.050 with Fusarium head blight [2] (setting [33]) and 11.0 in the assay on Fusarium head blight [4] (setting [34]). Besides, the DON contamination amount result in the assay with DON contamination [3] (single agent treatment with the compound A) is listed as “at a low level”. The DON result in [8] is recorded as “ND. (key: ND.: ND means that the analytical value is less than the detection limit (0.222 ppm) of the ELISA analysis kit.)”. Also, the DON production result in [8] was “not detected”. In addition, the “Ergosterol peak area value” was determined as 17952 in the assay on Fusarium graminearum [9] (7 days of culturing), 115921 in the assay with Fusarium graminearum [9] (14 days of culturing), 372377 in the assay with Fusarium graminearum [9] (21 days of culturing) and 350972 in the assay with Fusarium graminearum [9] (28 days of culturing). Also, in the assay with Fusarium graminearum [9] (course over culture), the “amount of ergosterol (indicator of the amount of fungi)” value is “reached a plateau on the 21st day”. Also, in assay [10], the DON amount result is given as “significantly lower than that in the non-treatment”. Moreover, the Ergosterol peak area in the assay with Fusarium graminearum [11] (treatment concentration 0.028%) is given as 1810454; in the assay on Fusarium graminearum [11] (treatment concentration 0.056%) it was 1834861; in the assay on Fusarium graminearum [11] (treatment concentration 0.112%) it was 1769582; with Fusarium graminearum [11] (treatment concentration 0.560%), 1921693; with Fusarium graminearum [11] (treatment concentration 2.800%), 85891. In addition, the “inhibitory effect on the fungal amount” value with Fusarium graminearum [11] (water solution of 0.056 to 0.560% potassium phosphite, compared to non-treatment) is on record as “inhibitory effect on the fungal amount at a moderate degree”; in the assay on Fusarium graminearum [11] (water solution of 2.800% potassium phosphite), “remarkable inhibitory effect on the fungal amount”.
